Reference: article PMC9459403, “New inhibitors of cathepsin V impair tumor cell proliferation and elastin degradation and increase immune cell cytotoxicity” (Computational and Structural Biotechnology Journal, 2022)

What was measured:
Type in all cases: cell-based, human
[1] = test system: U-937-derived macrophages; assay: Intracellular elastin-FITC degradation; details: 10 μM, 24 h, vs DMSO
Protocol: To evaluate the effect of the inhibitors on the elastolytic activity of cathepsin V, we assessed the intracellular degradation of elastin-FITC, a soluble bovine neck ligament elastin that is heavily labeled with FITC such that the fluorescence of the conjugate is quenched. Upon proteolysis, fluorescence is recovered and can be detected. U-937 cells, differentiated into macrophage-like cells, were seeded (at 1 × 10^5 cells/well) into 24-well plates with 500 μL of medium supplemented with 50 nM PMA. Inhibitors or DMSO (0.1 %) and elastin-FITC (10 μg/mL; AnaSpec, Fermont, CA, USA) were added to the medium and incubated for 24 h at 37 °C. Cells were detached and washed with PBS, and propidium iodide (BD Bioscience) was added to exclude dead cells. Therefore, green fluorescence arising from elastin-FITC degradation was monitored only for viable cells. The measurement was performed using a FACSCalibur instrument (BD Biosciences).

[2] = test system: NK-92 effector cells on target K-562 cells; assay: Calcein AM release assay (cytotoxicity); details: effector cells treated 10 µM, 6 h
Protocol: (§1) Effector cells (NK-92 or TALL-104; 1 × 10^6/ml) were treated with E-64d (10 µM) or compound 7 (10 µM) for 6 h. NK-92 cells were pre-treated with 1000 IU IL2/mL overnight prior to the addition of inhibitors. Effector cells were added to a 96-well U-bottom plate to achieve a selected effector-to-target ratio (E:T). Target K-562 cells were labelled with 15 µM Calcein-AM (Sigma) in serum-free RPMI 1640 medium for 30 min at 37 °C. Cells were then washed twice and resuspended in complete RPMI 1640 medium. Target cells (n = 5000) were added to the effectors. The plate was centrifuged at 200 × g for 1 min and incubated at 37 °C and 5 % CO2 for 4 h. After incubation, the plate was centrifuged at 700 × g for 5 min. The supernatant (50 µL) was transferred to a new microtiter plate to measure the fluorescence of the released Calcein-AM with a Tecan M1000 microtiter plate reader using 496 nm excitation and 516 nm emission filters. The percentage of cytotoxicity was calculated as follows: 100(test release-spontaneous release)/(total release-spontaneous release). Spontaneous release was measured in wells containing only target cells. For total release, 2 % Triton X-100 was added to the wells to achieve lysis of target cells. Lytic units (LU) were calculated using the inverse of the number of effector cells needed to lyse 30 % of the target cells multiplied by 100.

[3] = test system: TALL-104 effector cells on target K-562 cells; assay: Calcein AM release assay (cytotoxicity); details: effector cells treated 10 µM, 6 h
Protocol: as §1

[4] = test system: cystatin F in U-937 cells; assay: Western blot of cystatin F dimer-to-monomer ratio; details: U-937 cell lysates, 6 h treatment, 10 and 20 μM, vs control
Protocol: Cells were treated with E-64d or compound 7 (both at 10 µM or 20 µM) for 6 h. After treatment, whole-cell lysates were prepared in RIPA buffer supplemented with cOmplete™ Protease Inhibitor Cocktail (Roche, Basel, Switzerland) and centrifuged at 16 000 × g for 20 min at 4 °C. Total protein concentration was determined using the DC assay (Biorad, Hercules, CA, USA). Proteins were separated by non-reducing SDS-PAGE and transferred to a nitrocellulose membrane using the TransBlot Turbo System (Biorad). After blocking, the membranes were incubated with primary antibodies overnight at 4 °C and with secondary antibodies for 1 h at room temperature. Bands were visualized using Clarity Max Western ECL substrate (Biorad), and protein loading was checked using Stain Free technology (Biorad). Images were acquired using the ChemiDoc ML Imaging System (Biorad), and quantification analysis was performed using Image Lab software (Biorad).
The following primary antibodies were used: rabbit anti-cystatin F (1:375, HPA040442, Sigma), goat anti-cathepsin V (1:200, AF 1080, R&D, USA), and mouse anti-GAPDH (1:3000, 10494-I-AP, Proteintech, USA). […]

[5] = test system: MCF7 cells; assay: Proliferation assay (CFSE-labeled cells, flow cytometry); details: 72 h; E-64d 10 μM, pepstatin 20 μM, LHVS 10 nM, CLIK-148 1 μM
Protocol: To assess the effect of cathepsin V inhibitors on cell proliferation, MCF7 cells were fluorescently labeled with carboxyfluorescein succinimidyl ester (CFSE; ImmunoChemistry Technologies, Bloomington, MN, USA) in PBS for 15 min at room temperature according to the manufacturer’s instructions. Cells were washed with PBS, resuspended in complete medium, seeded (at 4 × 10^4 cells/well) into 24-well plates, and allowed to adhere overnight. Cells were then treated with the following inhibitors: compound 7 (10 μM), E-64d (10 μM), CLIK-148 (1 μM), LHVS (10 nM), pepstatin (20 μM), their combinations, or DMSO (0.1 %) in 500 μL of medium for 72 h at 37 °C. To prepare cells for flow cytometry, cells were detached and transferred to round-bottomed polystyrene tubes and washed with PBS. Before measurement, 7-aminoactinomycin D (7-AAD; ImmunoChemistry Technologies, Bloomington, MN, USA) was added according to the manufacturer’s instructions to exclude dead cells. Therefore, the green fluorescence arising from CFSE was monitored only for viable cells. The measurement was performed using a FACSCalibur instrument (BD Biosciences, San Jose, CA, USA).

CCOC(=O)[C@H]1O[C@@H]1C(=O)N[C@@H](CC(C)C)C(=O)NCCC(C)C [Compound E-64d, reference compound]
decrease of elastin-FITC degradation [1]: 18.4 ± 7.0%
cytotoxicity of NK-92 cells (target cell killing) [2]: decreased cytotoxic function
cytotoxicity of TALL-104 cells (target cell killing) [3]: decreased cytotoxic function
cystatin F dimer-to-monomer ratio [4]: increased
effect on cell proliferation (relative CFSE fluorescence intensity vs DMSO) [5]: no effects on cell proliferation
